Reference: patent US20190119348A1, “PARATHYROID HORMONE RECEPTOR 1 ANTAGONIST AND INVERSE AGONIST POLYPEPTIDES AND METHODS OF THEIR USE” (The General Hospital Corporation, priority 2016, published 2019)
Where a SMILES comes first, the peptide text is derived from it. [ ]: non-standard residue; d: D form.

Target: T1, wild-type PTHR (Mus musculus, UniProt P41593)
T1 construct: Wild-type mice were injected with a PTH agonist analog; from tissue; host or cells: whole animal, wild-type mice (C57BL/6J per methods)
T1 sequence (P41593 27-591): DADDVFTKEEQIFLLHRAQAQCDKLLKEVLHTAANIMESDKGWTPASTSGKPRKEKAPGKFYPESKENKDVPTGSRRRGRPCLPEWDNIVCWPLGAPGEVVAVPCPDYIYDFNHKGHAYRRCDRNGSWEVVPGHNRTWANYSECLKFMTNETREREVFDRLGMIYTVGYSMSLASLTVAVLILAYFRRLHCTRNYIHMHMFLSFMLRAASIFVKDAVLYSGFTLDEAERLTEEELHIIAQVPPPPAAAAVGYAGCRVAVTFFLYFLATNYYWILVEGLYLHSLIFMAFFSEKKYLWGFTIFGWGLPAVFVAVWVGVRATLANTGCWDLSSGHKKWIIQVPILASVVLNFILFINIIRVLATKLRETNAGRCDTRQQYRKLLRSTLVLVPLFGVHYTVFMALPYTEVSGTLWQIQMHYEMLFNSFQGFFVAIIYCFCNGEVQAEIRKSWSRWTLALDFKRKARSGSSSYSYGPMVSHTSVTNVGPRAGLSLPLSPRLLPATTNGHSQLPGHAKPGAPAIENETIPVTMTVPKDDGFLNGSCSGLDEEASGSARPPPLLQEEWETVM
Assay: Mouse transient model of hyperparathyroidism (PEG-PTH(1-35)-induced hypercalcemia), blood Ca2+
Type: in vivo
Conditions: 10-week old female CD1 mice; PEG-PTH(1-35)-1925 50 nmol/kg i.v. at −24 h; peptide 500 nmol/kg at 0 h; P<0.05 vs vehicle at 2 h
Description: Mice were injected IV via the tail vein or subcutaneously with ligands in vehicle (0.05% Tween80; 10 mM citrate; 150 mM NaCl; pH 5.0) to give the intended final ligand dose (e.g. 50 nmol/kg body weight). At times immediately before (t=0) and after injection, tail vein blood was collected and analyzed for blood ionized calcium (Ca^2+) measured with a RAPIDLAB 348 analyzer (SIEMENS Healthcare Diagnostic, United Kingdom).
To study antagonism at the wild-type PTHR under conditions of excess PTH, as occurs in humans with hyperparathyroidism, we developed a mouse non-genetic, transient model of hyperparathyroidism. Wild-type mice were injected with a PTH agonist analog, PEG-PTH(1-35), which induces hypercalcemia lasting between 24 and 72 hours after a single s.c. injection (see Guo et al., Journal of Bone and Mineral Research, 32:86-98, 2017). Antagonists were injected after 24 hours following the injection of PEG-PTH(1-35) and effects on blood Ca^2+ levels were measured. The results are illustrated in FIGS. 12A and 12B.

## CC[C@H](C)[C@H](N)C(=O)N[C@@H](CCC(N)=O)C(=O)N[C@@H](CC(C)C)C(=O)N[C@@H](CCSC)C(=O)N[C@@H](Cc1c[nH]cn1)C(=O)N[C@@H](CCC(N)=O)C(=O)N[C@@H](CCCNC(=N)N)C(=O)N[C@H](Cc1c[nH]c2ccccc12)C(=O)N[C@@H](CCCCN)C(=O)N[C@@H](Cc1c[nH]c2ccccc12)C(=O)N[C@H](C(=O)N[C@@H](CCC(N)=O)C(=O)N[C@@H](CC(=O)O)C(=O)N[C@@H](C)C(=O)N[C@@H](CCCNC(=N)N)C(=O)N[C@@H](CCCNC(=N)N)C(=O)N[C@@H](CCCNC(=N)N)C(=O)N[C@@H](C)C(=O)N[C@@H](Cc1c[nH]c2ccccc12)C(=O)N[C@@H](CC(C)C)C(=O)N[C@@H](Cc1c[nH]cn1)C(=O)N[C@@H](CCCCN)C(=O)N[C@@H](CC(C)C)C(=O)N[C@H](C(=O)N[C@@H](C)C(=O)N[C@@H](CCC(=O)O)C(=O)N[C@H](C(=O)N[C@@H](Cc1c[nH]cn1)C(=O)N[C@H](C(=O)N[C@@H](C)C(=O)N[C@@H](CCC(=O)O)C(=O)N[C@H](C(N)=O)[C@@H](C)CC)[C@@H](C)O)[C@@H](C)CC)[C@@H](C)CC)[C@@H](C)CC [compound 1949, dW12, W23-LA-PTH(5-36)] (H-IQLMHQR[dW]KWIQDARRRAWLHKLIAEIHTAEI-NH2; N-terminus assumed)
  effect on blood Ca^2+ (FIG. 12A): reduced blood Ca^2+
